The target of the test is T1, B1R of the rat (Rattus norvegicus, UniProt P97583).
T1 construct: expressed in transfected cells; host or cells: CHO K1 cells (Chinese hamster ovary), stably transfected
T1 sequence (P97583 1-337): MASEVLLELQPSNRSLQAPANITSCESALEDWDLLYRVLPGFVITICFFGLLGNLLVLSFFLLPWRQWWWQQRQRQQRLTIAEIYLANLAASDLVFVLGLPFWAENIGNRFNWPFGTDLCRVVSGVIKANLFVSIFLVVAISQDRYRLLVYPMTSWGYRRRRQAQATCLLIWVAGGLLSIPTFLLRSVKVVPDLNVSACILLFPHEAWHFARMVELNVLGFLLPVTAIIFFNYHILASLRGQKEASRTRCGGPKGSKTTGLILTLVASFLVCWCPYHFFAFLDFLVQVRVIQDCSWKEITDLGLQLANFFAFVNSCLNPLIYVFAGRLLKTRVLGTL
Kind of test: FLIPR Ca2+ functional assay, B1R antagonism, rat B1R in CHO K1 cells. Format: cell-based. To be noted: test substance 10 μM; rB1R CHO K1 cells; agonist Des-Arg9 bradykinin at EC80; % of maximum achievable inhibition. Put shortly:
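Stably transfected CHO K1 cells loaded with Fluo-4; Ca2+ fluorescence read on FLIPR (ex 488/em 540 nm). Compound preincubated 10-20 min, then agonist at EC80: Lys-Des-Arg9 bradykinin (human) or Des-Arg9 bradykinin (rat). % inhibition vs maximal inhibition; IC50 from concentration series, n=2-3, N>=2.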
With `O=C(CC1c2cccn2CCN1S(=O)(=O)c1ccccc1)NCCN1CCCC1` (stereo not shown) [Example 168, 2-[2-(Benzenesulfonyl)-1,2,3,4-tetrahydro-pyrrolo[1,2-a]pyrazin-1-yl]-N-(2-pyrrolidin-1-yl-ethyl)-acetamide], the inhibition at 10 µM worked out at 40.1%. Turning to `Cc1cccc(Cl)c1S(=O)(=O)N1CCn2cccc2C1CC(=O)N1CCN(CCO)CC1` (stereo not shown) [Example 263, 2-[2-[(2-Chloro-6-methyl-phenyl)sulfonyl]-1,2,3,4-tetrahydro-pyrrolo[1,2-a]pyrazin-1-yl]-1-[4-(2-hydroxy-ethyl)-piperazin-1-yl]-ethanone], the inhibition at 10 µM amounted to 2.37%.

`COc1cc(C)c(S(=O)(=O)N2CCn3cccc3C2CC(=O)N2CCC(O)(c3cccnc3)CC2)c(C)c1` (stereo not shown) [Example 141, 1-(4-Hydroxy-4-pyridin-3-yl-piperidin-1-yl)-2-[2-[(4-methoxy-2,6-dimethyl-phenyl)sulfonyl]-1,2,3,4-tetrahydro-pyrrolo[1,2-a]pyrazin-1-yl]ethanone]: the inhibition at 10 µM worked out at 37.8%. In the case of `CN1CCN(CC(NC(=O)CC2c3cccn3CCN2S(=O)(=O)c2cccc(C(F)(F)F)c2)c2ccccc2)CC1` (stereo not shown) [Example 185, N-[2-(4-Methyl-piperazin-1-yl)-1-phenyl-ethyl]-2-[2-[[3-(trifluoromethyl)phenyl]sulfonyl]-1,2,3,4-tetrahydro-pyrrolo[1,2-a]pyrazin-1-yl]-acetamide], the inhibition at 10 µM stood at 76.4%. As for `COc1cc(C)c(S(=O)(=O)N2CCn3cccc3C2CC(=O)N2CCN(CCn3c(C)ccc3C)CC2)c(C)c1` (stereo not shown) [Example 147, 1-[4-[2-(2,5-Dimethyl-1H-pyrrol-1-yl)-ethyl]-piperazin-1-yl]-2-[2-[(4-methoxy-2,6-dimethyl-phenyl)sulfonyl]-1,2,3,4-tetrahydro-pyrrolo[1,2-a]pyrazin-1-yl]-ethanone], the inhibition at 10 µM is 86.5%. With `Cc1ccc(CN2CCN(C(=O)CC3c4cccn4CCN3S(=O)(=O)c3ccccc3)CC2)cc1` (stereo not shown) [Example 232, 2-[2-(Benzenesulfonyl)-1,2,3,4-tetrahydro-pyrrolo[1,2-a]pyrazin-1-yl]-1-[4-(p-tolyl-methyl)-piperazin-1-yl]-ethanone], the inhibition at 10 µM is 2.94%. As for `Cc1cccc(Cl)c1S(=O)(=O)N1CCn2cccc2C1CC(=O)N1CCN(c2ncccn2)CC1` (stereo not shown) [Example 162, 2-[2-[(2-Chloro-6-methyl-phenyl)sulfonyl]-1,2,3,4-tetrahydro-pyrrolo[1,2-a]pyrazin-1-yl]-1-(4-pyrimidin-2-yl-piperazin-1-yl)-ethanone], the inhibition at 10 µM amounted to 25.2%. The result for `Cc1cccc(Cl)c1S(=O)(=O)N1CCn2cccc2C1CC(=O)NC(CN1CCN(C)CC1)c1ccccc1` (stereo not shown) [Example 156, 2-[2-[(2-Chloro-6-methyl-phenyl)sulfonyl]-1,2,3,4-tetrahydro-pyrrolo[1,2-a]pyrazin-1-yl]-N-[2-(4-methyl-piperazin-1-yl)-1-phenyl-ethyl]-acetamide] reads 95.1%; that for `Cc1cccc(Cl)c1S(=O)(=O)N1CCn2cccc2C1COCC(=O)N1CCC2(CC1)CCN(c1ccncc1)C2` (stereo not shown) [Example 14, 2-((2-(2-Chloro-6-methylphenylsulfonyl)-1,2,3,4-tetrahydropyrrolo[1,2-a]pyrazin-1-yl)methoxy)-1-(2-(pyridin-4-yl)-2,8-diazaspiro[4.5]decan-8-yl)ethanone], 109%. For `COc1ccc(CN2CCN(C(=O)CC3c4cccn4CCN3S(=O)(=O)c3c(C)cc(OC)cc3C)CC2)cc1` (stereo not shown) [Example 242, 2-[2-[(4-Methoxy-2,6-dimethyl-phenyl)sulfonyl]-1,2,3,4-tetrahydro-pyrrolo[1,2-a]pyrazin-1-yl]-1-[4-[(4-methoxyphenyl)-methyl]-piperazin-1-yl]-ethanone], the inhibition at 10 µM turned out to be 8.4%. To `COc1cc(C)c(S(=O)(=O)N2CCn3cccc3C2CC(=O)N2CCN(c3ccccn3)CC2)c(C)c1` (stereo not shown) [Example 149, 2-[2-[(4-Methoxy-2,6-dimethyl-phenyl)sulfonyl]-1,2,3,4-tetrahydro-pyrrolo[1,2-a]pyrazin-1-yl]-1-(4-pyridin-2-yl-piperazin-1-yl)-ethanone] belongs 68.9%. Take `O=C(CC1c2cccn2CCN1S(=O)(=O)c1ccccc1)NC1CCN(Cc2ccccc2)C1` (stereo not shown) [Example 171, 2-[2-(Benzenesulfonyl)-1,2,3,4-tetrahydro-pyrrolo[1,2-a]pyrazin-1-yl]-N-(1-benzyl-pyrrolidin-3-yl)-acetamide]: the inhibition at 10 µM was 24.4%. Consider `CCN1CCN(C(=O)CC2c3cccn3CCN2S(=O)(=O)c2ccccc2)CC1` (stereo not shown) [Example 173, 2-[2-(Benzenesulfonyl)-1,2,3,4-tetrahydro-pyrrolo[1,2-a]pyrazin-1-yl]-1-(4-ethyl-piperazin-1-yl)-ethanone], for which the inhibition at 10 µM came to 9.74%. For `COc1cc(C)c(S(=O)(=O)N2CCn3cccc3C2CC(=O)N2CCN(Cc3ccccc3F)CC2)c(C)c1` (stereo not shown) [Example 243, 1-[4-[(2-Fluorophenyl)-methyl]-piperazin-1-yl]-2-[2-[(4-methoxy-2,6-dimethyl-phenyl)sulfonyl]-1,2,3,4-tetrahydro-pyrrolo[1,2-a]pyrazin-1-yl]-ethanone], the inhibition at 10 µM is 29.4%. With `COc1cc(C)c(S(=O)(=O)N2CCn3cccc3C2CC(=O)N2CCN(c3ccccc3)CC2)c(C)c1` (stereo not shown) [Example 145, 2-[2-[(4-Methoxy-2,6-dimethyl-phenyl)sulfonyl]-1,2,3,4-tetrahydro-pyrrolo[1,2-a]pyrazin-1-yl]-1-(4-phenyl-piperazin-1-yl)-ethanone], the inhibition at 10 µM stood at 57.7%. On to `O=C(CC1c2cccn2CCN1S(=O)(=O)c1ccc(C(F)(F)F)cc1Cl)N1CCCCC1` (stereo not shown) [Example 19, 2-(2-(2-Chloro-4-(trifluoromethyl)phenylsulfonyl)-1,2,3,4-tetrahydropyrrolo[1,2-a]pyrazin-1-yl)-1-(piperidin-1-yl)ethanone], for which the inhibition at 10 µM was -7.98%.

On to `Cc1ccc2[nH]c(C3CCN(C(=O)CC4c5cccn5CCN4S(=O)(=O)c4c(C)cccc4Cl)CC3)nc2c1` (stereo not shown) [Example 163, 2-[2-[(2-Chloro-6-methyl-phenyl)sulfonyl]-1,2,3,4-tetrahydro-pyrrolo[1,2-a]pyrazin-1-yl]-1-[4-(5-methyl-1H-benzoimidazol-2-yl)-piperidin-1-yl]-ethanone], for which the inhibition at 10 µM turned out to be 39.7%. Take `COc1cc(C)c(S(=O)(=O)N2CCn3cccc3C2CC(=O)N2CCN(Cc3ccc(C)cc3)CC2)c(C)c1` (stereo not shown) [Example 241, 2-[2-[(4-Methoxy-2,6-dimethyl-phenyl)sulfonyl]-1,2,3,4-tetrahydro-pyrrolo[1,2-a]pyrazin-1-yl]-1-[4-(p-tolyl-methyl)-piperazin-1-yl]-ethanone]: the inhibition at 10 µM is 46.8%. Turning to `Cc1cccc(Cl)c1S(=O)(=O)N1CCn2cccc2C1CC(=O)N1CCN(CCC#N)CC1` (stereo not shown) [Example 253, 3-[4-[2-[2-[(2-Chloro-6-methyl-phenyl)sulfonyl]-1,2,3,4-tetrahydro-pyrrolo[1,2-a]pyrazin-1-yl]-acetyl]-piperazin-1-yl]-propionitrile], the inhibition at 10 µM is -39.1%. For the compound `Cc1cccc(Cl)c1S(=O)(=O)N1CCn2cccc2C1CC(=O)N1CCCCC1Cc1ccncc1` (stereo not shown) [Example 251, 2-[2-[(2-Chloro-6-methyl-phenyl)sulfonyl]-1,2,3,4-tetrahydro-pyrrolo[1,2-a]pyrazin-1-yl]-1-[2-(pyridin-4-yl-methyl)-piperidin-1-yl]-ethanone], the inhibition at 10 µM is -37.1%. For `Cc1ccc2[nH]c(C3CCN(C(=O)CC4c5cccn5CCN4S(=O)(=O)c4cccc(C(F)(F)F)c4)CC3)nc2c1` (stereo not shown) [Example 189, 1-[4-(5-Methyl-1H-benzoimidazol-2-yl)-piperidin-1-yl]-2-[2-[[3-(trifluoromethyl)phenyl]sulfonyl]-1,2,3,4-tetrahydro-pyrrolo[1,2-a]pyrazin-1-yl]-ethanone], the inhibition at 10 µM is -1.61%. On to `Cc1cc(C)c(CN2CCN(C(=O)CC3c4cccn4CCN3S(=O)(=O)c3cccc(C(F)(F)F)c3)CC2)c(C)c1` (stereo not shown) [Example 236, 2-[2-[[3-(Trifluoromethyl)phenyl]sulfonyl]-1,2,3,4-tetrahydro-pyrrolo[1,2-a]pyrazin-1-yl]-1-[4-[(2,4,6-trimethyl-phenyl)-methyl]-piperazin-1-yl]-ethanone], for which the inhibition at 10 µM amounted to 9.23%. Consider `Cc1cccc(Cl)c1S(=O)(=O)N1CCn2cccc2C1CC(=O)N1CCN(c2ncc(C(F)(F)F)cc2Cl)CC1` (stereo not shown) [Example 262, 2-[2-[(2-Chloro-6-methyl-phenyl)sulfonyl]-1,2,3,4-tetrahydro-pyrrolo[1,2-a]pyrazin-1-yl]-1-[4-[3-chloro-5-(trifluoromethyl)-pyridin-2-yl]-piperazin-1-yl]-ethanone], for which the inhibition at 10 µM is -12.5%. For `O=C(CC1c2cccn2CCN1S(=O)(=O)c1ccccc1)N1CCN(c2ncc(C(F)(F)F)cc2Cl)CC1` (stereo not shown) [Example 265, 2-[2-(Benzenesulfonyl)-1,2,3,4-tetrahydro-pyrrolo[1,2-a]pyrazin-1-yl]-1-[4-[3-chloro-5-(trifluoromethyl)-pyridin-2-yl]-piperazin-1-yl]-ethanone], the inhibition at 10 µM was determined as 17.9%. `O=C(CC1c2cccn2CCN1S(=O)(=O)c1ccccc1)N1CCC(O)(c2cccnc2)CC1` (stereo not shown) [Example 167, 2-[2-(Benzenesulfonyl)-1,2,3,4-tetrahydro-pyrrolo[1,2-a]pyrazin-1-yl]-1-(4-hydroxy-4-pyridin-3-yl-piperidin-1-yl)-ethanone]: the inhibition at 10 µM is 0.145%.

These data come from patent US8158628B2, “Sulfonylated 1,2,3,4-tetrahydropyrrolo[1,2-a]pyrazine compounds and their use as pharmaceuticals” (Gruenenthal GmbH, priority 2009, dated 2012).
